These results are taken from patent US20040214238A1 (priority 2003, published 2004).

One series relates to N-type calcium channel. Conditions: in vivo; cited from earlier work.
The target of series [1] is vanilloid receptor (VR1) in DRG neurons (Rattus norvegicus, UniProt O35433). The series is described as follows: capsaicin screening by whole cell voltage clamp at -60 mV. Conditions: 2 μM capsaicin, 128 responsive neurons.
Protocol: Viable neurons were identified using whole cell voltage clamp recordings based on the presence of robust voltage-gated sodium and potassium currents. Neurons were then exposed to 2 μM capsaicin (Sigma). After exposure, the bath was washed and the cell allowed to recover. Capsaicin-responsive cells had to recover after wash to be included. Capsaicin-non-responsive neurons were expose at least twice to capsaicin before the cell was collected and counted as capsaicin-non-responsive. Coverslips in the study were limited to two exposures of capsaicin to avoid desensitization. 1-2 MΩ microelectrodes were filled with an internal solution consisting of 90 mM KCl, 10 mM NaCl, 5 mM MgCl2, 40 mM HEPES, 5 mM EGTA and the pH was adjusted to 7.4 with KOH. The bath solution contained 140 mM NaCl, 5 mM KCl, 2 mM CaCl2, 0.5 mM MgCl2, 10 mM HEPES, and 15 mM Dextrose. […]
Viable neurons were identified by the presence of robust voltage-gated sodium and potassium currents during brief depolarizations from a holding potential of −80 mV. […] Capsaicin-non-responsive neurons were exposed to capsaicin at least twice before the cell was harvested and counted as capsaicin-non-responsive. […] For capsaicin screening, currents were recorded using 1-2 MΩ microelectrodes filled with an internal solution consisting of 90 mM KCl, 10 mM NaCl, 5 mM MgCl2 40 mM HEPES, and 5 mM EGTA adjusted to a pH of 7.4 with KOH. […]
The subject of series [2] is N-type calcium current in neurons of the dorsal root ganglia. It counts as cell-based, rat.
The next series deals with CaV1.3 L-type channels. Conditions: cited from earlier work.

Several values for one entry are separate records, joined by “and”; a condition that tells them apart may be missing. Equal values may be shown once.

Sequence of vanilloid receptor (VR1) in DRG neurons (O35433 whole entry): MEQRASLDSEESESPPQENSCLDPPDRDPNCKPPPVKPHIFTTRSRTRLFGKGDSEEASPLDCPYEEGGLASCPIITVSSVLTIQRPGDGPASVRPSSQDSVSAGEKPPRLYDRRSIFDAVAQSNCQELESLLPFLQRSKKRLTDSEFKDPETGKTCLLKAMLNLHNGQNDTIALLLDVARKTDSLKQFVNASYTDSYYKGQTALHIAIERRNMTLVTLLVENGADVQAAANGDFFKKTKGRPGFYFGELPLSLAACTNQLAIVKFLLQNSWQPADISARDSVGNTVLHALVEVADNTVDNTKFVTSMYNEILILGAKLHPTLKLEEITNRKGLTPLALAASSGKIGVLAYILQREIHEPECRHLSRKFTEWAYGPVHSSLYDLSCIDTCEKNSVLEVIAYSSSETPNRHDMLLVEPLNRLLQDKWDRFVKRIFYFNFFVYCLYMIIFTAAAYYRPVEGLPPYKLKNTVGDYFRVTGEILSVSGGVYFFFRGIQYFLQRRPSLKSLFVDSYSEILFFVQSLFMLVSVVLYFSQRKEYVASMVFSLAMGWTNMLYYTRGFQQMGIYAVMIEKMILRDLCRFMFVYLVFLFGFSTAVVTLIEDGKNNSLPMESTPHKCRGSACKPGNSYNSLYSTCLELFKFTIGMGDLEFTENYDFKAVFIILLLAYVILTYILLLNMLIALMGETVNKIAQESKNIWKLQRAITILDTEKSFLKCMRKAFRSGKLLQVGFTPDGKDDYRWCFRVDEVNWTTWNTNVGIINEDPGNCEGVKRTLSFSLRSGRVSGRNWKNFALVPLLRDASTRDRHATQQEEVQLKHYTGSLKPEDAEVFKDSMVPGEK

With `CSCC[C@@H]1NC(=O)[C@H](CC(C)C)NC(=O)[C@H](CCCNC(=N)N)NC(=O)[C@H](CO)NC(=O)[C@@H]2CSSC[C@@H]3NC(=O)[C@H](CO)NC(=O)CNC(=O)[C@H]([C@@H](C)O)NC(=O)[C@H](CSSC[C@H](N)C(=O)N[C@@H](CCCCN)C(=O)NCC(=O)N[C@@H](CCCCN)C(=O)NCC(=O)N[C@@H](C)C(=O)N[C@@H](CCCCN)C(=O)N2)NC(=O)[C@H](CSSC[C@@H](C(N)=O)NC(=O)[C@H](CCCCN)NC(=O)CNC(=O)[C@H](CO)NC(=O)[C@H](CCCNC(=N)N)NC3=O)NC(=O)[C@H](CC(=O)O)NC(=O)[C@H](Cc2ccc(O)cc2)NC1=O` [MVIIA], in the series on N-type calcium channel, the analgesic activity entry is recorded as “powerful analgesic” and the “side effects as analgesic” value is listed as “undesirable side effects”.
`COc1cc(CNC(=O)CCCC/C=C/C(C)C)ccc1O` [capsaicin]: the “average amplitude of capsaicin-induced inward current” value in series [1] is listed as 986±118 pA.
In the case of “ω-conotoxin GVIA (CKSPGSSCSPTSYNCCRSCNPYTKRCY) [ω-Ctx GVIA]”, in series [2], the “ω-Ctx GVIA-sensitive current as % of the total whole cell calcium current” value was 71±2% and 68±2%; the “ω-Ctx GVIA-sensitive, N-type current as component of the total Ca current” value is listed as ~70%. Further, in the series on CaV1.3 L-type channels, the “effect on CaV1.3 L-type current” value was “inhibited by high concentrations” and the “effect on neuronal CaV1.3 L-type channels” value was “not ω-Ctx GVIA-sensitive”.
